The text below walks through data of patent US10618903B2, “Heteroaryl substituted aminopyridine compounds” (BRISTOL-MYERS SQUIBB COMPANY, priority 2015, dated 2020).

Sequence of IRAK4 (Q9NWZ3 whole entry): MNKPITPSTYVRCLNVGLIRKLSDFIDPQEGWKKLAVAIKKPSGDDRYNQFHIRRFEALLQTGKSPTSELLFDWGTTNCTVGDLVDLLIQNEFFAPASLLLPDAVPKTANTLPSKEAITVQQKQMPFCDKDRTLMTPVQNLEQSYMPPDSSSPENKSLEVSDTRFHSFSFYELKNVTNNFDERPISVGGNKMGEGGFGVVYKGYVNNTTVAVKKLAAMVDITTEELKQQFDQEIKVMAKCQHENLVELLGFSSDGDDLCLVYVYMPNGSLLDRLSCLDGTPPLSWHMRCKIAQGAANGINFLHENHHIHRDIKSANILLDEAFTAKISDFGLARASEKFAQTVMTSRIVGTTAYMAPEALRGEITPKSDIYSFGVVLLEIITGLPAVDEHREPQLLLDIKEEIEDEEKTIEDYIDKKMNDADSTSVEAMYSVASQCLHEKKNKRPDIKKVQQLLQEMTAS

The experiment concerns the target IRAK4 (Homo sapiens (Human), UniProt Q9NWZ3). Put plainly: IRAK4 Inhibition Assay. The class given is biochemical. The settings on record: ATP 500 μM; IRAK4 0.6 nM. As for the experimental part: The assays were performed in U-bottom 384-well plates. The final assay volume was 30 μL prepared from 15 μL additions of enzyme and substrates (fluoresceinated peptide and ATP) and test compounds in assay buffer (20 mM HEPES pH 7.2, 10 mM MgCl2, 0.015% Brij 35 and 4 mM DTT). The reaction was initiated by the combination of IRAK4 with substrates and test compounds. The reaction mixture was incubated at room temperature for 60 min. and terminated by adding 45 μL of 35 mM EDTA to each sample. The reaction mixture was analyzed on the Caliper LABCHIP® 3000 (Caliper, Hopkinton, Mass.) by electrophoretic separation of the fluorescent substrate and phosphorylated product. Inhibition data were calculated by comparison to no enzyme control reactions for 100% inhibition and vehicle-only reactions for 0% inhibition. The final concentrations of reagents in the assays are ATP, 500 μM; FL-IPTSPITTTYFFFKKK peptide 1.5 μM; IRAK4, 0.6 nM; and DMSO, 1.6%.
With `CC(C)(O)[C@H](F)CNC(=O)c1cnc(-c2cnn3cc(Cl)cnc23)cc1N[C@H]1C[C@H](C(C)(C)O)C1` [Example 59, 6-(6-chloropyrazolo[1,5-a]pyrimidin-3-yl)-N—((R)-2-fluoro-3-hydroxy-3-methylbutyl)-4-(((1r,3R)-3-(2-hydroxypropan-2-yl)cyclobutyl)amino)nicotinamide], the concentration for half-maximal inhibition (IC50) is 6 nM. With `CC(C)(O)[C@H](F)CNC(=O)c1cnc(C2=C3N=CC(C#N)C=C3N=N2)cc1N[C@@H]1CCCN(C(=O)CC(F)(F)F)C1` (stereo partly drawn) [Example 108, 6-(6-cyano-6H-pyrazolo[4,3-b]pyridin-3-yl)-N—((R)-2-fluoro-3-hydroxy-3-methylbutyl)-4-(((R)-1-(3,3,3-trifluoropropanoyl)piperidin-3-yl)amino)nicotinamide], the IC50 came to 67 nM. On to `CC(C)(C)Nc1cc(-c2cnn3cc(Cl)cnc23)ncc1C(=O)NC[C@@H](F)C(C)(C)O` [Example 72, (R)-4-(tert-butylamino)-6-(6-chloropyrazolo[1,5-a]pyrimidin-3-yl)-N-(2-fluoro-3-hydroxy-3-methylbutyl) nicotinamide], for which the 50% inhibitory concentration (IC50) amounted to 2 nM. Take `C[C@@H](CO)Nc1cc(-c2cnc3cccnn23)ncc1C(=O)NC[C@@H](F)C(C)(C)O` [Example 136, N—((R)-2-fluoro-3-hydroxy-3-methylbutyl)-4-(((S)-1-hydroxypropan-2-yl)amino)-6-(imidazo[1,2-b]pyridazin-3-yl)nicotinamide]: the half-maximal inhibitory concentration (IC50) amounted to 19 nM. Consider `CC(C)(O)[C@H](F)CNC(=O)c1cnc(-c2cnn3cc(Cl)cnc23)cc1NCC1(O)COC1` [Example 39, (R)-6-(6-chloropyrazolo[1,5-a]pyrimidin-3-yl)-N-(2-fluoro-3-hydroxy-3-methylbutyl)-4-(((3-hydroxyoxetan-3-yl)methyl)amino)nicotinamide], for which the concentration for half-maximal inhibition (IC50) came to 18 nM. To `CC(C)(O)[C@H](F)CNC(=O)c1cnc(-c2cnn3cc(C#N)cnc23)cc1N[C@@H]1CCN(c2cncnc2)C1` [Example 119, 6-(6-cyanopyrazolo[1,5-a]pyrimidin-3-yl)-N—((R)-2-fluoro-3-hydroxy-3-methylbutyl)-4-(((R)-1-(pyrimidin-5-yl)pyrrolidin-3-yl)amino)nicotinamide] belongs 9 nM; to `COC1CC(Nc2cc(-c3cnn4cc(Cl)cnc34)ncc2C(=O)NC[C@@H](F)C(C)(C)O)CC1(F)F` (single isomer, unassigned) [Example 14], 22 nM. Consider `CC1(CNc2cc(-c3cnn4cc(Cl)cnc34)ncc2C(=O)NC[C@@H](F)C(C)(C)O)COC1` [Example 38, (R)-6-(6-chloropyrazolo[1,5-a]pyrimidin-3-yl)-N-(2-fluoro-3-hydroxy-3-methylbutyl)-4-(((3-methyloxetan-3-yl)methyl)amino)nicotinamide], for which the IC50 came to 7 nM. As to `CC(C)Nc1cc(-c2cnn3cc(Cl)cnc23)ncc1C(=O)NC1CCN(S(=O)(=O)C(C)C)CC1` [Example 74, 6-(6-chloropyrazolo[1,5-a]pyrimidin-3-yl)-4-(isopropylamino)-N-(1-(isopropylsulfonyl)piperidin-4-yl)nicotinamide], the IC50 stood at 26 nM.

For the compound `CO[C@H]1CC[C@H](NC(=O)c2cnc(-c3cnn4cc(Cl)cnc34)cc2NC(C)C)CC1` [Example 11, 6-(6-chloropyrazolo[1,5-a]pyrimidin-3-yl)-4-(isopropylamino)-N-((1R,4R)-4-methoxycyclohexyl)nicotinamide], the IC50 is 14 nM. As to `CC(C)(O)[C@H]1CC[C@H](NC(=O)c2cnc(-c3cnc4cccnn34)cc2NC2COC2)CC1` [Example 133, N-((1r,4r)-4-(2-hydroxypropan-2-yl)cyclohexyl)-6-(imidazo[1,2-b]pyridazin-3-yl)-4-(oxetan-3-ylamino)nicotinamide], the IC50 was found to be 36 nM. Take `CC(C)Nc1cc(-c2cnn3cc(Cl)cnc23)ncc1C(=O)N[C@H]1CC[C@H](C(=O)NC(C)C)CC1` [Example 29, 6-(6-chloropyrazolo[1,5-a]pyrimidin-3-yl)-4-(isopropylamino)-N-((1r,4r)-4-(isopropylcarbamoyl)cyclohexyl)nicotinamide]: the IC50 was determined as 24 nM. Turning to `CC(C)Nc1cc(-c2cnn3cc(Cl)cnc23)ncc1C(=O)NCCC(=O)N1CCOCC1` [Example 62, 6-(6-chloropyrazolo[1,5-a]pyrimidin-3-yl)-4-(isopropylamino)-N-(3-morpholino-3-oxopropyl)nicotinamide], the IC50 is 47 nM. To `CC(C)Nc1cc(-c2cnc3ccc(NCCO)nn23)ncc1C(=O)NC[C@@H](F)C(C)(C)O` [Example 139, (R)—N-(2-fluoro-3-hydroxy-3-methylbutyl)-6-(6-((2-hydroxyethyl)amino)imidazo[1,2-b]pyridazin-3-yl)-4-(isopropylamino)nicotinamide] belongs 3 nM.

Turning to `CC(C)(O)[C@H](F)CNC(=O)c1cnc(-c2cnn3cc(Cl)cnc23)cc1N[C@@H]1COC[C@H]1O` [Example 42, 6-(6-chloropyrazolo[1,5-a]pyrimidin-3-yl)-N—((R)-2-fluoro-3-hydroxy-3-methylbutyl)-4-(((3R,4S)-4-hydroxytetrahydrofuran-3-yl)amino) nicotinamide], the concentration for half-maximal inhibition (IC50) amounted to 8 nM. As to `CC(C)(O)[C@H](F)CNC(=O)c1cnc(-c2cnc3cccnn23)cc1NC1COCC1O` (single isomer, unassigned) [Example 135], the concentration for half-maximal inhibition (IC50) is 44 nM. For the compound `C[C@@H](CO)Nc1cc(-c2cnc3cccnn23)ncc1C(=O)NCCC(C)(C)O` [Example 137, (S)—N-(3-hydroxy-3-methylbutyl)-4-((1-hydroxypropan-2-yl)amino)-6-(imidazo[1,2-b]pyridazin-3-yl)nicotinamide], the IC50 was 75 nM.

As to `CC(C)Nc1cc(-c2cnn3cccnc23)ncc1C(=O)NC[C@@H](F)C(C)(C)O` [Example 127, (R)—N-(2-fluoro-3-hydroxy-3-methylbutyl)-4-(isopropylamino)-6-(pyrazolo[1,5-a]pyrimidin-3-yl)nicotinamide], the concentration for half-maximal inhibition (IC50) was found to be 81 nM. As for `CC(C)Nc1cc(-c2cnn3cc(Cl)cnc23)ncc1C(=O)N[C@H]1CC[C@H](NC(=O)C(C)(C)O)CC1` [Example 78, 6-(6-chloropyrazolo[1,5-a]pyrimidin-3-yl)-N-((1r,4r)-4-(2-hydroxy-2-methylpropanamido)cyclohexyl)-4-(isopropylamino)nicotinamide], the IC50 came to 29 nM.

Regarding `CC(C)(O)[C@H](F)CNC(=O)c1cnc(-c2cnn3cc(Cl)cnc23)cc1N[C@@H]1COC[C@H]1F` [Example 43, 6-(6-chloropyrazolo[1,5-a]pyrimidin-3-yl)-N—((R)-2-fluoro-3-hydroxy-3-methylbutyl)-4-(((3R,4S)-4-fluorotetrahydrofuran-3-yl)amino)nicotinamide], the concentration for half-maximal inhibition (IC50) amounted to 17 nM. To `CC(C)(O)CNc1cc(-c2cnc3cccnn23)ncc1C(=O)NC[C@@H](F)C(C)(C)O` [Example 138, (R)—N-(2-fluoro-3-hydroxy-3-methylbutyl)-4-((2-hydroxy-2-methylpropyl)amino)-6-(imidazo[1,2-b]pyridazin-3-yl)nicotinamide] belongs 62 nM; to `CC(C)(O)[C@H](F)CNC(=O)c1cnc(-c2cnc3cccnn23)cc1NC1COC1` [Example 131, (R)—N-(2-fluoro-3-hydroxy-3-methylbutyl)-6-(imidazo[1,2-b]pyridazin-3-yl)-4-(oxetan-3-ylamino)nicotinamide], 13 nM.
